Measurements reported in ChEMBL document CHEMBL1909046, “DrugMatrix in vitro pharmacology data”.

Experiments:
D(4) dopamine receptor = biological target: T1, D(4) dopamine receptor (Homo sapiens, UniProt P21917); assay: DRUGMATRIX: Dopamine D4.2 radioligand binding (ligand: [3H] Spiperone); format: cell membranes, Membrane; settings: cho-k1; Not Active = under 50% inhibition at 10 µM
T1 sequence (P21917 whole entry): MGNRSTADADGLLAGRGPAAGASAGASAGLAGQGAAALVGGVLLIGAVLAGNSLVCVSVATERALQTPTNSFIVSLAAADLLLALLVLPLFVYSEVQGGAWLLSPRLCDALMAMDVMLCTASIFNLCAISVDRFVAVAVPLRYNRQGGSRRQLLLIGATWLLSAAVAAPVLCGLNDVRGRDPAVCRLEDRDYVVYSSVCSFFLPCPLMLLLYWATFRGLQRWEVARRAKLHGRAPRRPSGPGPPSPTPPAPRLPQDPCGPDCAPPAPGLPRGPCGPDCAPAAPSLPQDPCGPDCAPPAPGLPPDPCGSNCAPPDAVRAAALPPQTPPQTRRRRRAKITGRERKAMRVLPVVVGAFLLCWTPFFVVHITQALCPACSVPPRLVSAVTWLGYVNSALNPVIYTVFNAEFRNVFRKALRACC

[1] = DRUGMATRIX: Phorbol Ester radioligand binding (ligand: [3H] PDBu); format: cell membranes, Mus musculus, ICR, Brain, Membrane; settings: Not Active = under 50% inhibition at 10 µM
[2] = biological target: T2, Alpha-2A adrenergic receptor (Homo sapiens, UniProt P08913); format: cell membranes, Sf9, Membrane; note: in other assays of this panel Not Active means under 50% inhibition at 10 µM
T2 sequence (P08913 whole entry): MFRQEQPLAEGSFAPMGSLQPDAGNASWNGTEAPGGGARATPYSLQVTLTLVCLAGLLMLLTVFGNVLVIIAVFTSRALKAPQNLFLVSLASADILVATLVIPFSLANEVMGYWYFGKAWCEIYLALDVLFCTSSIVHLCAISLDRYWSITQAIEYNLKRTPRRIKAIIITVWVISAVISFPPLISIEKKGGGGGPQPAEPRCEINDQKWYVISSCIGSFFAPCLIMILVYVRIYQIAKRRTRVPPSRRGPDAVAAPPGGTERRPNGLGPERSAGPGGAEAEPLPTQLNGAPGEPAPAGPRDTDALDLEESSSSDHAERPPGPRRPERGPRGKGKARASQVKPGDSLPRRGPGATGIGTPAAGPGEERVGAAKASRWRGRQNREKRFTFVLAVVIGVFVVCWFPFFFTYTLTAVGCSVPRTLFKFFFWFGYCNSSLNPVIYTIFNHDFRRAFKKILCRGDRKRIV

Calcitonin receptor = biological target: T3, Calcitonin receptor (Homo sapiens, UniProt P30988); format: cell membranes, Membrane; settings: t47d; note: in other assays of this panel Not Active means under 50% inhibition at 10 µM
T3 sequence (P30988 whole entry): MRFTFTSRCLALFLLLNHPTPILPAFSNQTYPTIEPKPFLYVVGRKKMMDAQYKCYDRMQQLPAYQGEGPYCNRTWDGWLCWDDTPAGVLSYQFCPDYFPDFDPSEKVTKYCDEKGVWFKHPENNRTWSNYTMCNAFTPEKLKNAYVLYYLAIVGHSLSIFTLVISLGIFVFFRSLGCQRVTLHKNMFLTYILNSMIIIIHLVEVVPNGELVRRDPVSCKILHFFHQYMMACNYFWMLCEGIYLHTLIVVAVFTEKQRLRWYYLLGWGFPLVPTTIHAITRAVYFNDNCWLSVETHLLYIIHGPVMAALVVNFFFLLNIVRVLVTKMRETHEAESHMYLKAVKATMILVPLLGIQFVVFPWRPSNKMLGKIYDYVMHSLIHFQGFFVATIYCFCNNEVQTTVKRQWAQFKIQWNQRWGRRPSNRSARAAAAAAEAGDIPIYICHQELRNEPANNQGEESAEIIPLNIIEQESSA

[3] = biological target: T4, Receptor-type tyrosine-protein phosphatase C (Homo sapiens, UniProt P08575); design: species or system Escherichia coli;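 note: inhibition of CD45 enzyme activity measured using DiFMUP as substrate; in other assays of this panel Not Active means under 50% inhibition at 10 µM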
T4 sequence (P08575 whole entry): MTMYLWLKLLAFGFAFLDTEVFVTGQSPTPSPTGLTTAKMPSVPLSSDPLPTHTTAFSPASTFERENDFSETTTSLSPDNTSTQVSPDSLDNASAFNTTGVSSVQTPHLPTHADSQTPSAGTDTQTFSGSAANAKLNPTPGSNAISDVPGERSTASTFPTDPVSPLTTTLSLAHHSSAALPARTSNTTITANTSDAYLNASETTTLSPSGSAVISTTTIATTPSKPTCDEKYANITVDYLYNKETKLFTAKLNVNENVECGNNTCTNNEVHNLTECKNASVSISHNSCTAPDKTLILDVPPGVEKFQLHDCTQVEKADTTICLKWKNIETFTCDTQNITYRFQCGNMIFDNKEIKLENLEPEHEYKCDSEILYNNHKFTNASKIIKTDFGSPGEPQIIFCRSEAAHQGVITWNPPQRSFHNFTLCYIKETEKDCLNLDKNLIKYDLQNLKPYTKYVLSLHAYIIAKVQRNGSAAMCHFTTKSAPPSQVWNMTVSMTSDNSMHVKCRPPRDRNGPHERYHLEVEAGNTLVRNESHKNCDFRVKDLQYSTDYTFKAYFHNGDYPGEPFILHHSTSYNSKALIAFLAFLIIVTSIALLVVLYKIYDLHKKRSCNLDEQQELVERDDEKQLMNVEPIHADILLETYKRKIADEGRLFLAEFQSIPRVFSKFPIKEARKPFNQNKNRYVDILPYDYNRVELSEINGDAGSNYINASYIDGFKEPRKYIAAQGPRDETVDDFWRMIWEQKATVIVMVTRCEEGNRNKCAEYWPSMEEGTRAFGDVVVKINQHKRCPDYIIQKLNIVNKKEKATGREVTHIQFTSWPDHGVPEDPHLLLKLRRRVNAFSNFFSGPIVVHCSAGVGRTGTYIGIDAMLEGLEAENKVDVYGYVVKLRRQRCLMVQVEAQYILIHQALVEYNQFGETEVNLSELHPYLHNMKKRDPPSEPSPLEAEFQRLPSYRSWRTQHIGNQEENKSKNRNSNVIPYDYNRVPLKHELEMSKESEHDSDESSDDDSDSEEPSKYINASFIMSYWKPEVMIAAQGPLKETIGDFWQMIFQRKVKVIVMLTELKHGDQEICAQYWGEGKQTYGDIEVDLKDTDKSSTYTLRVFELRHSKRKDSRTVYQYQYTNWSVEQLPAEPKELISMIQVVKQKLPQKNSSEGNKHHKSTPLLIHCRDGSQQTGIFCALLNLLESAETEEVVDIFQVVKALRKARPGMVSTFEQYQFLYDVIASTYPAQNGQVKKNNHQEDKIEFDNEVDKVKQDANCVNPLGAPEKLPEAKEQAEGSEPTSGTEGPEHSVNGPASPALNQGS

SMILES	IC50 (D(4) dopamine receptor)	IC50 [1]	Ki [1]	IC50 ([2]; sf9)	IC50 (Calcitonin receptor)	IC50 [3]	IC50 ([2]; read-out: IC50) [nM]	Ki ([2]; read-out: Ki) [nM]
CC1(C)O[C@@H]2C[C@H]3[C@@H]4C[C@H](F)C5=CC(=O)C=C[C@]5(C)[C@@]4(F)[C@@H](O)C[C@]3(C)[C@]2(C(=O)CO)O1 [FLUOCINOLONE ACETONIDE]	Not Active	Not Active	Not Active	Not Active	Not Active	Not Active	–	–
CC1(C)O[C@@H]2C[C@H]3[C@@H]4C[C@H](F)C5=CC(=O)CC[C@]5(C)[C@H]4[C@@H](O)C[C@]3(C)[C@]2(C(=O)CO)O1 [FLURANDRENOLIDE]	Not Active	Not Active	Not Active	Not Active	Not Active	Not Active	–	–
CN(C)c1ccc(C(=C2C=CC(=[N+](C)C)C=C2)c2ccc(N(C)C)cc2)cc1.[Cl-] [GENTIAN VIOLET]	Not Active	Not Active	Not Active	–	Not Active	Not Active	536	201
Cc1ccc(S(=O)(=O)NC(=O)NN2CC3CCCC3C2)cc1 (centres undefined) [GLICLAZIDE]	Not Active	Not Active	Not Active	Not Active	Not Active	Not Active	–	–
NC(=O)NO [HYDROXYUREA]	Not Active	Not Active	Not Active	Not Active	Not Active	Not Active	–	–
CC(C)Cc1ccc(C(C)C(=O)O)cc1 (centres undefined) [IBUPROFEN]	Not Active	Not Active	Not Active	Not Active	Not Active	Not Active	–	–
COc1ccc2c(c1)c(CC(=O)O)c(C)n2C(=O)c1ccc(Cl)cc1 [INDOMETHACIN]	Not Active	Not Active	Not Active	Not Active	Not Active	Not Active	–	–
CCc1c2c(nc3ccc(OC(=O)N4CCC(N5CCCCC5)CC4)cc13)-c1cc3c(c(=O)n1C2)COC(=O)[C@]3(O)CC [IRINOTECAN]	Not Active	Not Active	Not Active	Not Active	Not Active	Not Active	–	–
CC(C(=O)O)c1cccc(C(=O)c2ccccc2)c1 (centres undefined) [KETOPROFEN]	Not Active	Not Active	Not Active	Not Active	Not Active	Not Active	–	–
Nc1ccn([C@@H]2CS[C@H](CO)O2)c(=O)n1 [LAMIVUDINE]	Not Active	Not Active	Not Active	Not Active	Not Active	Not Active	–	–
O=S(=O)([O-])CCS.[Na+] [MESNA]	Not Active	Not Active	Not Active	Not Active	Not Active	Not Active	–	–
C#C[C@]1(O)CC[C@H]2[C@@H]3CCc4cc(OC)ccc4[C@H]3CC[C@@]21C [MESTRANOL]	Not Active	Not Active	Not Active	Not Active	Not Active	Not Active	–	–
CC(=O)Nc1cccc(O)c1 [METACETAMOL]	Not Active	Not Active	Not Active	Not Active	Not Active	Not Active	–	–
Cc1ncc([N+](=O)[O-])n1CCO [METRONIDAZOLE]	Not Active	Not Active	Not Active	Not Active	Not Active	Not Active	–	–
CC(C)(C(=O)c1cccnc1)c1cccnc1 [METYRAPONE]	Not Active	Not Active	Not Active	Not Active	Not Active	Not Active	–	–
Oc1ccc(OCc2ccccc2)cc1 [MONOBENZONE]	Not Active	Not Active	Not Active	Not Active	Not Active	Not Active	–	–
CC(C)(Oc1ccc(C2CCCc3ccccc32)cc1)C(=O)O (centres undefined) [NAFENOPIN]	Not Active	Not Active	Not Active	Not Active	Not Active	Not Active	–	–
COc1ccc2cc([C@H](C)C(=O)O)ccc2c1 [NAPROXEN]	Not Active	Not Active	Not Active	Not Active	Not Active	Not Active	–	–
CC(C)[C@H]1CC[C@H](C(=O)N[C@H](Cc2ccccc2)C(=O)O)CC1 [NATEGLINIDE]	Not Active	Not Active	Not Active	Not Active	Not Active	Not Active	–	–
CCN[C@@H]1C[C@H](N)[C@@H](O[C@H]2OC(CN)=CC[C@H]2N)[C@H](O)[C@H]1O[C@H]1OC[C@](C)(O)[C@H](NC)[C@H]1O [NETILMICIN]	Not Active	Not Active	Not Active	Not Active	Not Active	Not Active	–	–
COC(=O)C1=C(C)NC(C)=C(C(=O)OCC(C)C)C1c1ccccc1[N+](=O)[O-] (centres undefined) [NISOLDIPINE]	Not Active	Not Active	Not Active	Not Active	Not Active	Not Active	–	–
CCOC(=O)C1=C(C)NC(C)=C(C(=O)OC)C1c1cccc([N+](=O)[O-])c1 (centres undefined) [NITRENDIPINE]	Not Active	Not Active	Not Active	Not Active	Not Active	Not Active	–	–
C#C[C@]1(OC(C)=O)CC[C@H]2[C@@H]3CCC4=CC(=O)CC[C@@H]4[C@H]3CC[C@@]21C [NORETHINDRONE ACETATE]	Not Active	Not Active	Not Active	Not Active	Not Active	Not Active	–	–
